According to PubChem BioAssay AID2812 (Southern Research Specialized Biocontainment Screening …, 2010):
Active and inactive are the calls of the source. How the calls were made is not given here.

Tested on: MAGI host cells cytotoxicity, % cell control, 5% serum
Assay: MAGI cell viability under compound exposure – 5% and 10% serum, set 2, cytotoxicity control for HIV-1 antiviral project, dose response (AID 2812)
[1] = MAGI host cells cytotoxicity, % cell control, 10% serum

Compound	TC50	TC50 [1] [µM]
COc1cc(C=NNc2ccc(Cl)c(C(=O)O)c2)ccc1OC(=O)c1ccc(F)cc1	> 100 µM (inactive)	> 100
CS(=O)(=O)C1=NSC2=NC(=O)/C(=C\c3cccn3-c3ccc(Cl)cc3)C(=N)N21	> 100 µM (inactive)	> 100
COc1cc(C=NNc2ccc(Cl)c(C(=O)O)c2)ccc1OC(=O)c1ccccc1F	> 100 µM (inactive)	> 100
CC1(C)CC(=O)C2=C(C1)c1c(ccc3ccccc13)NC2c1cc([N+](=O)[O-])cc([N+](=O)[O-])c1O (stereo not given)	58.6 µM	> 100
COc1ccc(OC)c(N2C(=O)/C(=C/c3ccco3)C(=O)NC2=S)c1	–	> 100
COc1ccc(C(=O)Oc2ccc(C=NNc3ccc(Cl)c(C(=O)O)c3)cc2OC)cc1	> 100 µM (inactive)	> 100
Cc1ccc(-n2cccc2/C=C2/C(=N)N3C(=NC2=O)SN=C3S(C)(=O)=O)cc1Cl	> 100 µM (inactive)	> 100
CC(C)S(=O)(=O)C1=NSC2=NC(=O)/C(=C\c3ccc(-c4cccc(C(=O)O)c4)o3)C(=N)N21	> 100 µM (inactive)	> 100
Cc1ccc(S(=O)(=O)Oc2ccc(/C=C3/C(=N)N4C(=NC3=O)SN=C4S(C)(=O)=O)cc2)cc1	> 100 µM (inactive)	> 100
O=C1NC(=S)N(c2ccc(F)cc2)C(=O)/C1=C/c1ccco1	–	> 100
CS(=O)(=O)C1=NSC2=NC(=O)/C(=C\c3ccc(OS(=O)(=O)c4ccccc4)cc3)C(=N)N21	> 100 µM (inactive)	> 100
O=c1c(=Cc2cc([N+](=O)[O-])cc([N+](=O)[O-])c2O)sc2nc3ccccc3n12	> 100 µM (inactive)	> 100
O=C(O)c1ccccc1C(=O)N(Cc1cccc(Oc2ccc(Cl)cc2)c1)[C@H]1CCCc2ccccc21	56.4 µM	> 100
O=C(O)c1cc(NN=Cc2ccc(-c3ccccc3)cc2)ccc1Cl	> 100 µM (inactive)	> 100
Cc1cc(C)cc(-n2cccc2/C=C2/C(=N)N3C(=NC2=O)SN=C3S(C)(=O)=O)c1	79.5 µM	> 100
CC(C)S(=O)(=O)C1=NSC2=NC(=O)/C(=C\c3ccc(-c4ccccc4)o3)C(=N)N21	74 µM	> 100
CCS(=O)(=O)C1=NSC2=NC(=O)/C(=C\c3ccc(OS(=O)(=O)c4ccccc4)cc3)C(=N)N21	> 100 µM (inactive)	> 100
COc1ccccc1NS(=O)(=O)c1cccc(-n2c(O)c(C=Nc3ccccc3C(=O)O)c3ccccc3c2=O)c1	93.7 µM	> 100
Cc1ccc(-n2c(O)c(C=Nc3ccccc3-c3n[nH]c(=S)[nH]c3=O)c3ccccc3c2=O)c(C)c1	–	> 100
